System: patients with diabetic retinopathy undergoing cataract surgery
Test: Intravitreal injection of anti-VEGF compound before cataract surgery in patients with diabetic retinopathy (case reports)
Assay type: in vivo, human
Details: Example 2: diabetic retinopathy; 0.15 cc (3.75 mg) intravitreal, same day prior to cataract surgery
Experimental: The following is an example of a method performed for the intravitreal injection of pharmaceutical compositions containing at least one anti-VEGF compound. Prior to injecting a needle through the sclera, the eyes were massaged to soften the ophthalmic tissue. The next step is to create a bleb in the conjunctiva and move the conjunctiva up from prefere so it covered an area about 3.5 mm from the limbus. Once the conjunctiva is prepared, the needle is inserted through the sclera into the vitreous. A 30 or 31 gauge needle is used. […]
A person underwent cataract surgery in the right eye. […] Refraction of the right eye was measured as −0.25−0.75×170 20/200. […] Refraction of the right eye after one week was measured at −0.25 sph 20/25.
A person with proliferative diabetic retinopathy with a history of pan-photocoagulation underwent cataract surgery of both eyes, however on different dates. Preoperative right eye refraction was measured as pl −0.50×174 20/100. Preoperative left eye refraction was measured as −0.75 sph 20/150. […]
A person with proliferative diabetic retinopathy with a history of pan-photocoagulation underwent cataract surgery of the left eye. Preoperative left eye refraction was measured as plano sph 20/80. […] Six days following cataract surgery refraction of the left eye was measured as plano sph 20/25.

Substance: Bevacizumab: anti-VEGF humanized monoclonal IgG1 antibody that binds and inhibits VEGF (trade name AVASTIN, Genentech)
- Patient condition after one week: doing well

From patent publication US20080070855A1, “Treatment with anti-VEGF agents to prevent postoperative inflammation and angiogenesis in normal and diseased eyes” (priority 2006, published 2008)
